Data published in US8680052B1, “Methods of treating, reducing the incidence of, and/or preventing ischemic events” (The Medicines Company, priority 2013, dated 2014).
Like-named read-outs stand apart in the source and are kept apart here.

Tested on: patients with acute coronary syndromes undergoing PCI
[1] = 48-hour, MITT Without STEMI, exploratory

SMILES: COC(=O)[C@H](c1ccccc1Cl)N1CCc2sccc2C1 [Clopidogrel, clopidogrel, reference compound]
- All-cause mortality (48-hour, MITT Without STEMI): 5 (0.1)
- IDR (48-hour, MITT Without STEMI): 23 (0.6)
- MI (48-hour, MITT Without STEMI): 256 (6.6)
- Mortality/MI/IDR (primary endpoint) (48-hour, MITT Without STEMI): 276 (7.1)
- Q-wave MI (48-hour, MITT Without STEMI): 10 (0.3)
- Stent thrombosis (48-hour, MITT Without STEMI): 11 (0.3)
- Stroke (48-hour, MITT Without STEMI): 7 (0.2)
- Mortality/Q-wave MI/IDR [1]: 34 (0.9)
- Mortality/Q-wave MI/Stent thrombosis [1]: 23 (0.6)
- All-cause mortality (48 hours, ITT): 11 (0.2) no. (%)
- IDR (48 hours, ITT): 31 (0.7) no. (%)
- MI (48 hours, ITT): 265 (6.0) no. (%)
- Mortality/MI/IDR (48 hours, ITT): 297 (6.7) no. (%)
- Mortality/Q-wave MI/IDR (48 hours, ITT): 48 (1.1) no. (%)
- Mortality/Q-wave MI/Stent thrombosis (48 hours, ITT): 33 (0.7) no. (%)
- Q-wave MI (48 hours, ITT): 10 (0.2) no. (%)
- Stent thrombosis (48 hours, ITT): 15 (0.3) no. (%)
- Stroke (48 hours, ITT): 8 (0.2) no. (%)
- All-cause mortality (48 hours, ITT With STEMI): 5 (1.0) no. (%)
- IDR (48 hours, ITT With STEMI): 8 (1.6) no. (%)
- MI (48 hours, ITT With STEMI): 9 (1.8) no. (%)
- Mortality/MI/IDR (48 hours, ITT With STEMI): 20 (3.9) no. (%)
- Mortality/Q-wave MI/IDR (48 hours, ITT With STEMI): 13 (2.6) no. (%)
- Mortality/Q-wave MI/Stent thrombosis (48 hours, ITT With STEMI): 9 (1.8) no. (%)
- Q-wave MI (48 hours, ITT With STEMI): 0 (0.0) no. (%)
- Stent thrombosis (48 hours, ITT With STEMI): 4 (0.8) no. (%)
- Stroke (48 hours, ITT With STEMI): 1 (0.2) no. (%)
- All-cause mortality (48 hours, ITT Without STEMI): 6 (0.2) no. (%)
- IDR (48 hours, ITT Without STEMI): 23 (0.6) no. (%)
- MI (48 hours, ITT Without STEMI): 256 (6.5) no. (%)
- Mortality/MI/IDR (48 hours, ITT Without STEMI): 277 (7.1) no. (%)
- Mortality/Q-wave MI/IDR (48 hours, ITT Without STEMI): 35 (0.9) no. (%)
- Mortality/Q-wave MI/Stent thrombosis (48 hours, ITT Without STEMI): 24 (0.6) no. (%)
- Q-wave MI (48 hours, ITT Without STEMI): 10 (0.3) no. (%)
- Stent thrombosis (48 hours, ITT Without STEMI): 11 (0.3) no. (%)
- Stroke (48 hours, ITT Without STEMI): 7 (0.2) no. (%)
- All-cause mortality (48 hours, MITT): 9 (0.2) no. (%)
- IDR (48 hours, MITT): 30 (0.7) no. (%)
- MI (48 hours, MITT): 264 (6.1) no. (%)
- Mortality/MI/IDR (48 hours, MITT): 293 (6.8) no. (%)
- Mortality/Q-wave MI/IDR (48 hours, MITT): 45 (1.0) no. (%)
- Mortality/Q-wave MI/Stent thrombosis (48 hours, MITT): 31 (0.7) no. (%)
- Q-wave MI (48 hours, MITT): 10 (0.2) no. (%)
- Stent thrombosis (48 hours, MITT): 15 (0.3) no. (%)
- Stroke (48 hours, MITT): 7 (0.2) no. (%)
- All-cause mortality (48 hours, MITT With STEMI): 4 (0.9) no. (%)
- IDR (48 hours, MITT With STEMI): 7 (1.6) no. (%)
- MI (48 hours, MITT With STEMI): 8 (1.8) no. (%)
- Mortality/MI/IDR (48 hours, MITT With STEMI): 17 (3.8) no. (%)
- Mortality/Q-wave MI/IDR (48 hours, MITT With STEMI): 11 (2.5) no. (%)
- Mortality/Q-wave MI/Stent thrombosis (48 hours, MITT With STEMI): 8 (1.8) no. (%)
- Q-wave MI (48 hours, MITT With STEMI): 0 (0.0) no. (%)
- Stent thrombosis (48 hours, MITT With STEMI): 4 (0.9) no. (%)
- Stroke (48 hours, MITT With STEMI): 0 (0.0) no. (%)
- All-cause mortality (48 hours, MITT Without STEMI): 5 (0.1) no. (%)
- IDR (48 hours, MITT Without STEMI): 23 (0.6) no. (%)
- MI (48 hours, MITT Without STEMI): 256 (6.6) no. (%)
- Mortality/MI/IDR (Prespecified primary endpoint) (48 hours, MITT Without STEMI): 276 (7.1) no. (%)
- Mortality/Q-wave MI/IDR (48 hours, MITT Without STEMI): 34 (0.9) no. (%)
- Mortality/Q-wave MI/Stent thrombosis (48 hours, MITT Without STEMI): 23 (0.6) no. (%)
- Q-wave MI (48 hours, MITT Without STEMI): 10 (0.3) no. (%)
- Stent thrombosis (48 hours, MITT Without STEMI): 11 (0.3) no. (%)
- Stroke (48 hours, MITT Without STEMI): 7 (0.2) no. (%)
- primary composite of all-cause mortality, MI, or ischemia-driven revascularization (48 hours, MITT Without STEMI): 7.1%
- All-cause mortality (48 hours, Safety population): 9 (0.2) no. (%)
- IDR (48 hours, Safety population): 30 (0.7) no. (%)
- MI (48 hours, Safety population): 265 (6.1) no. (%)
- Mortality/MI/IDR (48 hours, Safety population): 294 (6.7) no. (%)
- Mortality/Q-wave MI/IDR (48 hours, Safety population): 45 (1.0) no. (%)
- Mortality/Q-wave MI/Stent thrombosis (48 hours, Safety population): 31 (0.7) no. (%)
- Q-wave MI (48 hours, Safety population): 10 (0.2) no. (%)
- Stent thrombosis (48 hours, Safety population): 15 (0.3) no. (%)
- Stroke (48 hours, Safety population): 7 (0.2) no. (%)
- All-cause mortality (30 days, ITT): 47 (1.1) no. (%)
- IDR (30 days, ITT): 69 (1.6) no. (%)
- MI (30 days, ITT): 293 (6.7) no. (%)
- Mortality/MI/IDR (30 days, ITT): 373 (8.5) no. (%)
- Mortality/Q-wave MI/IDR (30 days, ITT): 119 (2.7) no. (%)
- Mortality/Q-wave MI/Stent thrombosis (30 days, ITT): 82 (1.9) no. (%)
- Q-wave MI (30 days, ITT): 15 (0.3) no. (%)
- Stent thrombosis (30 days, ITT): 30 (0.7) no. (%)
- All-cause mortality (30 days, ITT With STEMI): 16 (3.2) no. (%)
